According to PubChem BioAssay AID330 (DTP/NCI, 2004):
Several values for one entry are separate records, joined by “and”; a condition that tells them apart may be missing. Equal values may be shown once. Inconclusive results and toxic doses are left out.

Tested on: P388 leukemia ip, CD2F1 mice, survival T/C
Assay: NCI In Vivo Anticancer Drug Screen. Data for tumor model P388 Leukemia (intraperitoneal) in CD2F1 (CDF1) mice
Conditions: endpoint: median survival time, higher = longer survival
In short: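 Mice carrying the transplanted tumor received test compound or vehicle. Survival was recorded in each group, and the value is the treated-group measurement divided by that of the vehicle-treated control group.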

[1] = dose: 50.0 mg/kg/injection, schedule: Q01DX005 (ip), vehicle: saline with Tween-80
[2] = dose: 100.0 mg/kg/injection, schedule: Q01DX005 (ip), vehicle: saline with Tween-80
[3] = dose: 200.0 mg/kg/injection, schedule: Q01DX005 (ip), vehicle: saline with Tween-80
[4] = dose: 50.0 mg/kg/injection, schedule: Q01DX009 (ip), vehicle: saline with Tween-80
[5] = dose: 100.0 mg/kg/injection, schedule: Q01DX009 (ip), vehicle: saline with Tween-80
[6] = dose: 200.0 mg/kg/injection, schedule: Q01DX009 (ip), vehicle: saline with Tween-80
[7] = dose: 100.0 mg/kg/injection, schedule: Q04DX003 (ip), vehicle: saline with Tween-80
[8] = dose: 200.0 mg/kg/injection, schedule: Q04DX003 (ip), vehicle: saline with Tween-80
[9] = dose: 400.0 mg/kg/injection, schedule: Q04DX003 (ip), vehicle: saline with Tween-80
[10] = dose: 50.0 mg/kg/injection, schedule: Q01DX005 (ip), vehicle: Klucel (hydroxypropylcellulose) (HPC)
[11] = dose: 100.0 mg/kg/injection, schedule: Q01DX005 (ip), vehicle: Klucel (hydroxypropylcellulose) (HPC)
[12] = dose: 200.0 mg/kg/injection, schedule: Q01DX005 (ip), vehicle: Klucel (hydroxypropylcellulose) (HPC)
[13] = dose: 60.0 mg/kg/injection, schedule: Q01DX005 (ip), vehicle: saline with Tween-80
[14] = dose: 120.0 mg/kg/injection, schedule: Q01DX005 (ip), vehicle: saline with Tween-80
[15] = dose: 240.0 mg/kg/injection, schedule: Q01DX005 (ip), vehicle: saline with Tween-80
[16] = dose: 100.0 mg/kg/injection, schedule: Q01DX001 (ip), vehicle: Klucel (hydroxypropylcellulose) (HPC)
[17] = dose: 200.0 mg/kg/injection, schedule: Q01DX001 (ip), vehicle: Klucel (hydroxypropylcellulose) (HPC)

Question: CN(C)C1CC2CCCCC2CC1O (stereo not given) was tested. Which T/C (dose: 25.0 mg/kg/injection, schedule: Q04DX003 (ip), vehicle: saline) did it give?
Answer: 93 % of control

Question: And the T/C (dose: 50.0 mg/kg/injection, schedule: Q04DX003 (ip), vehicle: saline)?
Answer: 99 % of control

Question: What about the T/C (dose: 100.0 mg/kg/injection, schedule: Q01DX001 (ip), vehicle: saline) of the same compound?
Answer: 104 % of control

Question: And the T/C (dose: 100.0 mg/kg/injection, schedule: Q04DX003 (ip), vehicle: saline)?
Answer: 103 % of control

Question: What about the T/C (dose: 200.0 mg/kg/injection, schedule: Q01DX001 (ip), vehicle: saline) of the same compound?
Answer: 98 % of control

Question: With CCOc1cc2c(cc1C(C)c1ccccc1)OCO2 (stereo not given) as the compound, how does the T/C [1] read?
Answer: 108 % of control

Question: And the T/C [2]?
Answer: 101 % of control

Question: What about the T/C [3] of the same compound?
Answer: 101 % of control

Question: O=C(O)CCC(CS)C(=O)O (stereo not given) was tested. Which T/C (dose: 0.5 mg/kg/injection, schedule: Q01DX005 (ip), vehicle: saline) did it give?
Answer: 100 % of control

Question: What about the T/C (dose: 1.0 mg/kg/injection, schedule: Q01DX005 (ip), vehicle: saline) of the same compound?
Answer: 100 % of control

Question: What about the T/C (dose: 2.0 mg/kg/injection, schedule: Q01DX005 (ip), vehicle: saline) of the same compound?
Answer: 100 % of control

Question: And the T/C (dose: 4.0 mg/kg/injection, schedule: Q01DX005 (ip), vehicle: saline)?
Answer: 98 % of control

Question: And the T/C (dose: 8.0 mg/kg/injection, schedule: Q01DX005 (ip), vehicle: saline)?
Answer: 98 % of control

Question: And the T/C (dose: 16.0 mg/kg/injection, schedule: Q01DX005 (ip), vehicle: saline)?
Answer: 112 % of control

Question: What about the T/C (dose: 32.0 mg/kg/injection, schedule: Q01DX005 (ip), vehicle: saline) of the same compound?
Answer: 100 % of control

Question: And the T/C (dose: 64.0 mg/kg/injection, schedule: Q01DX005 (ip), vehicle: saline)?
Answer: 96 % of control

Question: And the T/C (dose: 128.0 mg/kg/injection, schedule: Q01DX005 (ip), vehicle: saline)?
Answer: 89 % of control

Question: Which T/C (dose: 25.0 mg/kg/injection, schedule: Q01DX009 (ip), vehicle: saline with Tween-80) does the source give for Brc1c(Br)c(Br)c2n[nH]nc2c1Br here?
Answer: 103 % of control

Question: And the T/C [4]?
Answer: 106 % of control

Question: And the T/C [5]?
Answer: 103 % of control

Question: And the T/C [6]?
Answer: 115 % of control

Question: Which T/C (dose: 7.5 mg/kg/injection, schedule: Q01DX005 (ip), vehicle: saline) does the source give for CN1C(c2cccnc2)=NCC12CCCC2 here?
Answer: 98 % of control

Question: What about the T/C (dose: 15.0 mg/kg/injection, schedule: Q01DX005 (ip), vehicle: saline) of the same compound?
Answer: 96 % of control

Question: What about the T/C (dose: 30.0 mg/kg/injection, schedule: Q01DX005 (ip), vehicle: saline) of the same compound?
Answer: 97 % of control

Question: CN(C)[C@@H]1C(=O)C(C(=O)NCN2CCN(C(=N)N=C(N)N)CC2)=C(O)[C@@]2(O)C(=O)C3=C(O)c4c(O)cccc4[C@@](C)(O)[C@H]3C[C@@H]12 was tested. Which T/C (dose: 1.8 mg/kg/injection, schedule: Q01DX005 (ip), vehicle: saline) did it give?
Answer: 111 % of control

Question: What about the T/C (dose: 3.0 mg/kg/injection, schedule: Q01DX005 (ip), vehicle: saline) of the same compound?
Answer: 117 % of control

Question: What about the T/C (dose: 8.33 mg/kg/injection, schedule: Q01DX005 (ip), vehicle: saline) of the same compound?
Answer: 154 % of control

Question: And the T/C (dose: 10.0 mg/kg/injection, schedule: Q01DX005 (ip), vehicle: saline)?
Answer: 89 % of control

Question: COC1OCC(NC(=O)c2ccccc2)C(OS(C)(=O)=O)C1OS(C)(=O)=O (stereo not given) was tested. Which T/C (dose: 12.5 mg/kg/injection, schedule: Q01DX009 (ip), vehicle: other) did it give?
Answer: 97 % of control

Question: And the T/C (dose: 25.0 mg/kg/injection, schedule: Q01DX009 (ip), vehicle: other)?
Answer: 87 % of control

Question: And the T/C (dose: 50.0 mg/kg/injection, schedule: Q01DX009 (ip), vehicle: other)?
Answer: 106 % of control

Question: What about the T/C (dose: 100.0 mg/kg/injection, schedule: Q01DX009 (ip), vehicle: other) of the same compound?
Answer: 95 % of control

Question: And the T/C (dose: 200.0 mg/kg/injection, schedule: Q01DX009 (ip), vehicle: other)?
Answer: 88 % of control

Question: What does the source list for Cc1cnc2c([N+](=O)[O-])cc(C)c(C)c2c1?
Answer: T/C [4]: 99 % of control; T/C [5]: 99 % of control; T/C [6]: 92 % of control

Question: Which results are given for CCSc1nc(C=O)c(Cc2ccc(Br)cc2)c(=O)[nH]1?
Answer: T/C [7]: 110 % of control; T/C [8]: 107 % of control; T/C [9]: 88 % of control

Question: What does the source list for O=C(Oc1ccc[nH]c1=O)C1CCCCC1?
Answer: T/C [10]: 108 % of control and 96 % of control; T/C [11]: 100 % of control and 89 % of control; T/C [12]: 102 % of control and 86 % of control; T/C (dose: 400.0 mg/kg/injection, schedule: Q01DX005 (ip), vehicle: Klucel (hydroxypropylcellulose) (HPC)): 92 % of control and 97 % of control

Question: What does the source list for Cc1c2cnccc2c(C)c2c1c1ccccc1n2CCOC(=O)c1ccccc1?
Answer: T/C [7]: 95 % of control; T/C [8]: 86 % of control; T/C [9]: 86 % of control

Question: How did the T/C [13] turn out when COc1cc(/C=C/C(=O)Sc2ccccc2)cc(OC)c1O was run?
Answer: 109 % of control

Question: And the T/C [14]?
Answer: 105 % of control

Question: And the T/C [15]?
Answer: 100 % of control

Question: For O=C1NCCCC1(Cl)Cl, which T/C (dose: 12.5 mg/kg/injection, schedule: Q01DX009 (ip), vehicle: Klucel (hydroxypropylcellulose) (HPC)) is on record?
Answer: 100 % of control

Question: And the T/C (dose: 25.0 mg/kg/injection, schedule: Q01DX009 (ip), vehicle: Klucel (hydroxypropylcellulose) (HPC))?
Answer: 104 % of control

Question: And the T/C (dose: 50.0 mg/kg/injection, schedule: Q01DX009 (ip), vehicle: Klucel (hydroxypropylcellulose) (HPC))?
Answer: 94 % of control

Question: For CN(CCC(=O)c1ccc(Cl)cc1)CCC(=O)c1ccc(Cl)cc1, which T/C [10] is on record?
Answer: 117 % of control

Question: What about the T/C [11] of the same compound?
Answer: 108 % of control

Question: What about the T/C [12] of the same compound?
Answer: 104 % of control

Question: What does the source list for CCCCCCCCCCCCCCCC(=O)OCC(COP(=O)(O)OCC(COC(=O)CCCCCCCCCCCCCCC)OC(=O)CCCCCCCCCCCCCCC)OC(=O)CCCCCCCCCCCCCCC (stereo not given)?
Answer: T/C (dose: 50.0 mg/kg/injection, schedule: Q01DX009 (ip), vehicle: saline): 98 % of control; T/C (dose: 100.0 mg/kg/injection, schedule: Q01DX009 (ip), vehicle: saline): 100 % of control; T/C (dose: 200.0 mg/kg/injection, schedule: Q01DX009 (ip), vehicle: saline): 101 % of control

Question: Which T/C (dose: 100.0 mg/kg/injection, schedule: Q04DX002 (ip), vehicle: Klucel (hydroxypropylcellulose) (HPC)) does the source give for C=C(C)C1CC(=O)C2(C)C(C1)OC(=O)C2C(=O)OCC (stereo not given) here?
Answer: 101 % of control

Question: And the T/C (dose: 200.0 mg/kg/injection, schedule: Q04DX002 (ip), vehicle: Klucel (hydroxypropylcellulose) (HPC))?
Answer: 103 % of control and 106 % of control

Question: What about the T/C (dose: 400.0 mg/kg/injection, schedule: Q04DX002 (ip), vehicle: Klucel (hydroxypropylcellulose) (HPC)) of the same compound?
Answer: 103 % of control and 104 % of control

Question: Which results are given for COc1ccc2c(c1)CCC1C2CCC2(C)C1CCC2(O)CCN=[N+]=[N-] (stereo not given)?
Answer: T/C [4]: 104 % of control; T/C [5]: 101 % of control; T/C [6]: 101 % of control

Question: What does the source list for Cc1nn2cc(-c3ccc4ccccc4c3)nc2[nH]c1=O?
Answer: T/C [16]: 100 % of control; T/C [17]: 99 % of control; T/C (dose: 400.0 mg/kg/injection, schedule: Q01DX001 (ip), vehicle: Klucel (hydroxypropylcellulose) (HPC)): 100 % of control

Question: Which results are given for C1CCc2c(-c3n[nH]c4c3CCCC4)n[nH]c2C1?
Answer: T/C [13]: 103 % of control; T/C [14]: 101 % of control; T/C [15]: 100 % of control

Question: For CC(C)(C)[Si](C)(C)ONC(=O)c1ccccc1, which T/C (dose: 6.25 mg/kg/injection, schedule: Q01DX009 (ip), vehicle: distilled water + Tween-80) is on record?
Answer: 100 % of control

Question: What about the T/C (dose: 12.5 mg/kg/injection, schedule: Q01DX009 (ip), vehicle: distilled water + Tween-80) of the same compound?
Answer: 98 % of control

Question: And the T/C (dose: 25.0 mg/kg/injection, schedule: Q01DX009 (ip), vehicle: distilled water + Tween-80)?
Answer: 107 % of control

Question: And the T/C (dose: 50.0 mg/kg/injection, schedule: Q01DX009 (ip), vehicle: distilled water + Tween-80)?
Answer: 91 % of control

Question: What about the T/C (dose: 100.0 mg/kg/injection, schedule: Q01DX009 (ip), vehicle: distilled water + Tween-80) of the same compound?
Answer: 100 % of control

Question: What about the T/C (dose: 200.0 mg/kg/injection, schedule: Q01DX009 (ip), vehicle: distilled water + Tween-80) of the same compound?
Answer: 98 % of control

Question: What about the T/C (dose: 400.0 mg/kg/injection, schedule: Q01DX009 (ip), vehicle: distilled water + Tween-80) of the same compound?
Answer: 100 % of control

Question: Which results are given for CC(C)NC(=O)C(C)O (stereo not given)?
Answer: T/C (dose: 50.0 mg/kg/injection, schedule: Q01DX005 (ip), vehicle: saline): 101 % of control; T/C (dose: 100.0 mg/kg/injection, schedule: Q01DX005 (ip), vehicle: saline): 101 % of control; T/C (dose: 200.0 mg/kg/injection, schedule: Q01DX005 (ip), vehicle: saline): 101 % of control

Question: For Cc1ccc(-c2cn3ccsc3n2)cc1, which T/C [16] is on record?
Answer: 95 % of control

Question: And the T/C [17]?
Answer: 97 % of control

Question: For Cc1cc(NS(=O)(=O)c2ccc(N=c3c4ccccc4n(-c4ccccc4)c4ccccc34)cc2)no1, which T/C [1] is on record?
Answer: 103 % of control

Question: And the T/C [2]?
Answer: 92 % of control

Question: What about the T/C [3] of the same compound?
Answer: 90 % of control
